Measured values taken from patent publication US6485931B2, “CHOLESTEROL DEHYDROGENASE, COPROSTAN-3-ONE DEHYDROGENASE AND 4-CHOLESTEN-3-ONE DEHYDROGENASE, COMPOSITIONS CONTAINING THE DEHYDROGENASES, AND METHOD FOR REDUCING AMOUNT OF CHOLESTEROL USING THE COMPOSITIONS” (Kyowa Hakko Kogyo Co., Ltd., priority 1996, dated 2002).

How the values were obtained:
[1] = tested on: 4-cholesten-3-one dehydrogenase B; experiment: 4-cholesten-3-one dehydrogenase B titer: coprostan-3-one produced, TLC/FID; type: biochemical, Eubacterium sp. CP 1; details: for relative activity (enzyme activity without adding inhibitor is 100): 1 mM inhibitor, 30 minutes, pH 7.5, 37° C.; for relative activity in comparison with the case of no addition: 1 mM metal salt
Protocol: (§1) An enzyme solution was allowed to stand still at 37° C. for 15 minutes using various pH buffer solutions, and remaining activity was measured, and pH range in which activity was not less than 50% of the maximum active value was regarded as a stable pH range. (The following is the same.)
With 0.2 ml of 3 mM 4-cholesten-3-one micelle solution containing 0.33% Triton X-100 is mixed 0.3 ml of a 20 mM Tris-hydrochloric acid buffer solution (pH 7.5) containing 1.0% Triton X-100and 1 mM DTT, and 0.1 ml of a10 mM NADH solution, the resulted mixture is added 0.05 ml of an enzyme solution, reacted for 30 minutes at 37° C., and then added 0.1 ml of chloroform to extract sterol and to terminate the reaction.
(§2) Then, the quantity of coprostan-3-one produced in the reaction solution is determined using TLC/FID iatroscan. The quantity of coprostan-3-one produced in the reaction solution is determined likewise using an inactivated enzyme which has been previously heated as a control. The enzyme activity which produces 1 μmol of coprostan-3-one per one minute is regarded as 1 unit.

[2] = tested on: cholesterol in meat; experiment: enzymatic conversion to coprostanol in aging period of meat (Embodiment 10); type: biochemical; details: minced beef, each enzyme 0.2 unit/g meat, PL-D 2 unit/g meat, 0.5 ml 20% nicotinamide, aged 7 days
Protocol: 10 g of beef 6 hours after slaughtering was made into minced meat, and to this was added the cholesterol dehydrogenase obtained in Embodiment 5 (0.2 unit/g meat), the 4-cholesten-3-one dehydrogenase obtained in Embodiment 6 (0.2 unit/g meat) and the coprostan-3-one dehydrogenase obtained in Embodiment 7 (0.2 unit/g meat) and mixed, and the mixture was aged at 5° C. for 7 days. Also, mixtures to which 0.5 ml of a 20% aqueous nicotinamide solution had been further added, meat to which phospholipase (2 unit/g meat) had been further added and meat to which both of them had been further added at the mixing were aged at […] for 7 days, respectively.
After aging, the meat was freeze-dried and lipid components were extracted with a 25 ml extraction solvent (chloroform:methanol=2:1). Regarding the resulting extracted sample, the amount of converted sterol products was determined using gas chromatography (manufactured by GL Science, TC-1701, column φ0.25 […]×30 m). In Table 5, PL-D represents phospholipase D and COP represents coprostanol, respectively.

[3] = tested on: cholesterol dehydrogenase A; experiment: cholesterol dehydrogenase A titer: 4-cholesten-3-one produced from cholesterol micelle, TLC/FID; type: biochemical, Eubacterium sp. CP 2; details: for relative activity (enzyme activity without adding inhibitor defined as 100): 1 mM inhibitor, 30 minutes, pH 7.5, 37° C.; for relative activity as substrate (activity of cholesterol is 100): substrate specificity; for relative activity in comparison with the case of no addition: 1 mM metal salt
Protocol: as §1
With 0.2 ml of 3 mM cholesterol micelle solution containing 0.33% Triton X-100 is mixed 0.3 ml of a 20 mM piperazine-N,N′-bis-(2-ethane […]) (hereinafter, referred to as “PIPES”) buffer solution (pH 7.5) containing 0.5% Triton X-100 and 1 mM dithiothreitol (hereinafter, referred to as “DTT”), and 0.1 ml of a 10 mM […] solution, the resulted mixture is added 0.05 ml of an enzyme solution, reacted for 30 minutes at 37° C., and then added 0.1 ml of chloroform to extract sterol and to terminate the reaction.
as §2, with “4-cholesten-3-one” for “coprostan-3-one”

[4] = tested on: 4-cholesten-3-one dehydrogenase A; experiment: 4-cholesten-3-one dehydrogenase A titer: coprostan-3-one produced, TLC/FID; type: biochemical, Eubacterium sp. CP 2; details: for relative activity (enzyme activity without adding inhibitor defined as 100): 1 mM inhibitor, 30 minutes, pH 7.5, 37° C.; for relative activity in comparison to the case of no addition: 1 mM metal salt; for relative activity as substrate (activity of 4-cholesten-3-one defined as 100): substrate specificity
Protocol: as §1
With 0.2 ml of 3 mM 4-cholesten-3-one micelle solution containing 0.33% Triton X-100 is mixed 0.3 ml of a 20 mM PIPES buffer solution (pH 7.5) containing 0.5% Triton X-100 and 1 mM DTT, and 0.1 ml of a 10 mM NADH solution, the resulted mixture is added 0.05 ml of an enzyme solution, and reacted for 30 minutes at 37° C., and then added 0.1 ml of chloroform to extract sterol and to terminate the reaction.
as §2

[5] = tested on: coprostan-3-one dehydrogenase A; experiment: coprostan-3-one dehydrogenase A titer: coprostanol produced, TLC/FID; type: biochemical, Eubacterium sp. CP 2; details: for relative activity (enzyme activity without adding inhibitor defined as 100): 1 mM inhibitor, 30 minutes, pH 7.5, 37° C.; for relative activity in comparison with the case of no addition: 1 mM metal salt
Protocol: as §1
[…] The enzyme solution was mixed with equal amounts of activating fractions and left for 15 minutes at 5° C., then used.
(§3) Then, the quantity of coprostanol produced in the reaction solution is determined using TLC/FID iatroscan. The quantity of coprostanol in the reaction solution is determined likewise using an inactivated enzyme which has been previously heated as a control. The enzyme activity which produces 1 μmol of coprostanol per one minute is regarded as 1 unit.

[6] = tested on: cholesterol dehydrogenase B; experiment: cholesterol dehydrogenase B titer: 4-cholesten-3-one produced, TLC/FID; type: biochemical, Eubacterium sp. CP 1; details: for relative activity (enzyme activity without adding inhibitor is 100): 1 mM inhibitor, 30 minutes, pH 7.5, 37° C.; for relative activity as substrate (activity of cholesterol defined as 100): substrate specificity; for relative activity in comparison to the case of no addition: 1 mM metal salt
Protocol: as §1
With 0.2 ml of 3 mM cholesterol micelle solution containing 0.33% Triton X-100 is mixed 0.3 ml of a 50 mM phosphoric acid buffer solution (pH 7.5) containing 1.0% Triton X-100 and 1 mM DTT, and 0.1 ml of a 10 mM NADP solution, to the resulted mixture is added 0.05 ml of an enzyme solution, reacted for 30 minutes at 37° C., and then added 0.1 ml of chloroform to extract sterol and to terminate the reaction.
Then, the quantity of 4-cholesten-3-one produced in the reaction solution is determined using TLC/FID iatroscan. […] The enzyme activity which produces 1 μmol of 4-cholesten-3-one per one minute is regarded as 1 unit.

[7] = tested on: coprostan-3-one dehydrogenase B; experiment: coprostan-3-one dehydrogenase B titer: coprostanol produced, TLC/FID; type: biochemical, Eubacterium sp. CP 1; details: for relative activity (enzyme activity without adding inhibitor is 100): 1 mM inhibitor, 30 minutes, pH 7.5, 37° C.; for relative activity in comparison to the case of no addition: 1 mM metal salt
Protocol: as §1
With 0.2 ml of 3 mM coprostan-3-one micelle solution containing 0.33% Triton X-100 is mixed 0.3 ml of a 20 mM Tris-hydrochloric acid buffer solution (pH 7.5) containing 1.0% Triton X-100 and 1 mM DTT, and 0.1 ml of a 10 mM NADPH solution, to the resulted mixture is added 0.05 ml of an enzyme solution, reacted for 30 minutes at 37° C., and then added 0.1 ml of chloroform to extract sterol and to terminate the reaction.
as §3

[8] = in vivo; cited from earlier work

CC(C)CCC[C@@H](C)[C@H]1CC[C@H]2[C@@H]3CC=C4CC(=O)CC[C@]4(C)[C@H]3CC[C@]12C [5-cholestenon-3-one]
relative activity as substrate (activity of 4-cholesten-3-one defined as 100) ([1]; substrate specificity): 0

NC(=O)c1cccnc1 [Nicotinamide, nicotinamide]
COP conversion (%) [2]: 0%

O=S(=O)(O)c1cc[c]([Hg][Cl])cc1 [PCMB, p-chloro mercury phenylsulfonate]
relative activity (enzyme activity without adding inhibitor defined as 100) [3]: 0 | relative activity (enzyme activity without adding inhibitor defined as 100) [4]: 47 | relative activity (enzyme activity without adding inhibitor defined as 100) [5]: 41 | relative activity (enzyme activity without adding inhibitor is 100) [6]: 0 | relative activity (enzyme activity without adding inhibitor is 100) [1]: 0 | relative activity (enzyme activity without adding inhibitor is 100) [7]: 0

CC(C)[C@H](C)CC[C@@H](C)[C@H]1CC[C@H]2[C@@H]3CC=C4C[C@@H](O)CC[C@]4(C)[C@H]3CC[C@]12C [campesterol]
relative activity as substrate (activity of cholesterol is 100) [3]: 74 | relative activity as substrate (activity of cholesterol defined as 100) [6]: 50

[Cl][Cu][Cl] [copper chloride]
relative activity in comparison with the case of no addition [3]: 3.2 | relative activity in comparison to the case of no addition [4]: 0 | relative activity in comparison with the case of no addition [5]: 2.7 | relative activity in comparison to the case of no addition [6]: 0 | relative activity in comparison with the case of no addition [1]: 0 | relative activity in comparison to the case of no addition [7]: 0

CC(C)CCC[C@@H](C)[C@H]1CC[C@H]2[C@@H]3CC[C@@H]4C[C@@H](O)CC[C@]4(C)[C@H]3CC[C@]12C [coprostanol]
absorbability through the intestinal tract [8]: very low

NC(=O)CI [iodine acetamide]
relative activity (enzyme activity without adding inhibitor defined as 100) [3]: 82 | relative activity (enzyme activity without adding inhibitor defined as 100) [4]: 94 | relative activity (enzyme activity without adding inhibitor defined as 100) [5]: 82 | relative activity (enzyme activity without adding inhibitor is 100) [1]: 99 | relative activity (enzyme activity without adding inhibitor is 100) [7]: 95

O=C(O)CI [iodine acetic acid]
relative activity (enzyme activity without adding inhibitor is 100) [6]: 98

O=P([O-])([O-])[O-].[Na+].[Na+].[Na+] [phosphate ion, trisodium phosphate]
effect on conversion reaction by cholesterol dehydrogenase B [6]: remarkably activated

CC(=O)[C@H]1CC[C@H]2[C@@H]3CCC4=CC(=O)CC[C@]4(C)[C@H]3CC[C@]12C [progesterone]
relative activity as substrate (activity of 4-cholesten-3-one defined as 100) [4]: 41

CC[C@H](/C=C/[C@@H](C)[C@H]1CC[C@H]2[C@@H]3CC=C4C[C@@H](O)CC[C@]4(C)[C@H]3CC[C@]12C)C(C)C [stigmasterol]
relative activity as substrate (activity of cholesterol is 100) [3]: 30 | relative activity as substrate (activity of cholesterol defined as 100) [6]: 39

C[C@]12CC[C@H]3[C@@H](CCC4=CC(=O)CC[C@@]43C)[C@@H]1CC[C@@H]2O [testosterone]
relative activity as substrate (activity of 4-cholesten-3-one defined as 100) [4]: 0

CC[C@H](CC[C@@H](C)[C@H]1CC[C@H]2[C@@H]3CC=C4C[C@@H](O)CC[C@]4(C)[C@H]3CC[C@]12C)C(C)C [β sitosterol]
relative activity as substrate (activity of cholesterol is 100) [3]: 38 | relative activity as substrate (activity of cholesterol defined as 100) [6]: 67

iron chloride
relative activity in comparison with the case of no addition [3]: 95 | relative activity in comparison to the case of no addition [4]: 110 | relative activity in comparison with the case of no addition [5]: 12 | relative activity in comparison to the case of no addition [6]: 0 | relative activity in comparison with the case of no addition [1]: 107 | relative activity in comparison to the case of no addition [7]: 105

prognerone
relative activity as substrate (activity of 4-cholesten-3-one defined as 100) [4]: 0
